Source: patent US9266939B2, “Compositions comprising natriuretic peptides and methods of use thereof” (Alexion Pharmaceuticals, Inc., priority 2010, dated 2016)
Where two headings read alike, the source gives them in different places. Bridge positions count the residues as written; N and C are the ends. Ends that are not written are not given here.

Legend:
[1] = biological target: T1, neutral endopeptidase (NEP) (Homo sapiens, UniProt P08473); experiment: in vitro; details: isolated enzyme neprilysin, pH 7.5
[2] = biological target: T1, neutral endopeptidase (NEP)
NPR-B = biological target: T2, NPR-B (Homo sapiens, UniProt P20594); experiment: Whole cell guanylyl cyclase (cGMP) assay, NPR-B; type: cell-based; parameters: expressed in transfected cells; details: for Emax: read-out: % Efficacy
T2 sequence (P20594 23-1047): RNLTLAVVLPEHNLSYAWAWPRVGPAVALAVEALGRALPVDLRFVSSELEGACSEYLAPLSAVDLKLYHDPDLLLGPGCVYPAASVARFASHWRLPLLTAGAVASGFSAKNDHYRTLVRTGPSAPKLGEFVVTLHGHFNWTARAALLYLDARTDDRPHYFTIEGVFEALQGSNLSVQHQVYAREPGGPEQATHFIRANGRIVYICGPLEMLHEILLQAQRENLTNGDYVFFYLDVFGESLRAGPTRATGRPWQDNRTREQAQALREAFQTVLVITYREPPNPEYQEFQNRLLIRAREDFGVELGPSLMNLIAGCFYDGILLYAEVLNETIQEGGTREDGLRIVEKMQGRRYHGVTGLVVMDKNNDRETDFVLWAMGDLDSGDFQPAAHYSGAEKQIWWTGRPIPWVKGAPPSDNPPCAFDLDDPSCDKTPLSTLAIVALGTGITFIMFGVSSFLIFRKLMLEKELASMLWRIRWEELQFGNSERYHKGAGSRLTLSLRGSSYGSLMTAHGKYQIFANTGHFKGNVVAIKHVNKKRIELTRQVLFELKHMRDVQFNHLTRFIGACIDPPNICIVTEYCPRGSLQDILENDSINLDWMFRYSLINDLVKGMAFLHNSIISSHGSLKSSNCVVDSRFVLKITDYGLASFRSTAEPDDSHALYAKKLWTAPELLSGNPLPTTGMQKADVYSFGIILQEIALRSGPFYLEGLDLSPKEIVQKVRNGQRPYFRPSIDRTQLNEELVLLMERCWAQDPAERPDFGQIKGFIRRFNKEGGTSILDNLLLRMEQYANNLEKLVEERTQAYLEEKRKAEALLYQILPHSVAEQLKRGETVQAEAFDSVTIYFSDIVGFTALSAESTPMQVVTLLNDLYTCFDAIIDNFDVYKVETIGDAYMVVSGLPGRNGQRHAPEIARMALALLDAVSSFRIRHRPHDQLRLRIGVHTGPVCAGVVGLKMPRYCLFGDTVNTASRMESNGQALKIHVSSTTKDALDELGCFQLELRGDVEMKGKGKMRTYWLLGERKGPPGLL
Method: HEK293S cells in a semi-confluent 75 cm2 flask are transfected with 30 μg of plasmid DNA coding for the appropriate receptor, e.g., human NPR-B or NPR-A, using Lipofectamine-2000CD. Alternatively, a stable polyclonal HEK293 S cell line expressing either human NPR-B or NPR-A was used. 24 hours after transfection, cells are trypsinized and plated into 48-well plates at 1×10^5 cells/well. Guanylyl cyclase assay is carried out 24 hours post-plating. Cells are first incubated for 30 minutes at 37° C. with serum-free DMEM medium. Then, they are incubated in triplicate with or without increasing concentrations of reference or test proteins in serum-free DMEM supplemented with 1 mM IBMX and 0.5% BSA, at 37° C. for 30 minutes to one hour. CNP serves as a suitable reference for NPR-B, while ANP is a suitable reference for NPR-A. Finally, cells are washed with ice-cold PBS and solubilized in lysis buffer from Catchpoint cGMP kit (Molecular devices). Concentrations of cGMP in lysate are determined using the Catchpoint cGMP kit. Dose-response curves are analysed with GraphPad Prism 5 software using non-linear regression with four-parameter logistic equation.

T1 sequence (P08473 whole entry): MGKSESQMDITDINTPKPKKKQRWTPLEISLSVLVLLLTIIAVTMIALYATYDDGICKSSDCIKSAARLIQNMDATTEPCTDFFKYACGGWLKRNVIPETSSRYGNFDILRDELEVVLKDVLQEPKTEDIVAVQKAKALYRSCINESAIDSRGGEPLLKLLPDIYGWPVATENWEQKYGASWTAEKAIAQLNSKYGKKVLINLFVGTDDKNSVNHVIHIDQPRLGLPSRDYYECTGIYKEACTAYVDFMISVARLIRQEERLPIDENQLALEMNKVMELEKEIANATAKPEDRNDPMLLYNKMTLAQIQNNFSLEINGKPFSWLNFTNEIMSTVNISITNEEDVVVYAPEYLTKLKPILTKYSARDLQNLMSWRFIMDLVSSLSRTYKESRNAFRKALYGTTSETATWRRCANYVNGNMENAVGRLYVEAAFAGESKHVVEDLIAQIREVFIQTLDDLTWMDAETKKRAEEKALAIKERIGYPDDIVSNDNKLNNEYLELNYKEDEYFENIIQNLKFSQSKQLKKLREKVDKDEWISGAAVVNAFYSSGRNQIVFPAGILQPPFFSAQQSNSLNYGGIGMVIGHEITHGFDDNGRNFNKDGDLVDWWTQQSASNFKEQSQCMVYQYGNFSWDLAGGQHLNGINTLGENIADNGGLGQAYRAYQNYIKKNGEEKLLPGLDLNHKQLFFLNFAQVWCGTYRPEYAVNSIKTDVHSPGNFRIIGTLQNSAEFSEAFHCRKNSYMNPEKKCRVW

Compound | remaining at 4 h [1] | Resist NEP degradation (No/Yes) [2] | EC50 Ratio versus CNP22 (NPR-B) | Rescue Ratio Average (NPR-B) | Rescue Ratio versus CNP22 (NPR-B) | Rescue range (NPR-B) | EC50 (NPR-B; EC50) | Emax (NPR-B) | potency compared with the other tested peptides (NPR-B) | % of control after 240 min [2] | EC50 (NPR-B; EC50 on NPR-B) | Rescue range (NPR-B; agonist concentration producing cGMP as 2.4 nM (lower) and 14 nM (high) CNP22) | Rescue Ratio Average (NPR-B; peptides, NPR-B whole cell cGMP assay)
EEEEEESGGGGSGGGQGANKKGLSKGCFGLKLDRIGSMSGLGC (disulfide 27-43) [C8(E6) [BC8]] | 103% | Yes | 48.9 | 52 | 48-56 | 116 to 779 nM | 719 nM | 97% | – | – | – | – | –
EEEEEESGGGGSGGGKGANKQGLSKGCFGLKLDRIGSMSGLGC (disulfide 27-43) [C6(E6) [BC6]] | 98% | Yes | 45.7 | 63 | 55-70 | 132 to 973 nM | 672 nM | 88% | – | – | – | – | –
EEEEEESGGGGSGGGQGANQKGLSKGCFGLKLDRIGSMSGLGC (disulfide 27-43) [C10(E6) [BC10]] | 102% | Yes | 168 | 90 | 89-90 | 213 to 1253 nM | 2470 nM | 156% | – | – | – | – | –
EEEEEESGGGGSGGGQGANKQGLSKGCFGLKLDRIGSMSGLGC (disulfide 27-43) [C11(E6) [BC11]] | 102% | Yes | 60.4 | 120 | – | 289 to 1662 nM | 888 nM | 95% | – | – | – | – | –
EEEEEEHKLRGQEHPNARKYKGANKKGLSKGCFGLKLDRIGSMSGLGC (disulfide 32-48) [KB1(E6)] | 107% | Yes | 5.75 | 5.6 | 5.6-5.6 | 13.4 to 78.1 nM | 84.5 nM | 109% | more potent than the other tested peptides | – | – | – | –
EEEEEEPSSAAPQPNAPSTSAGLSKGCFGLKLDRIGSMSGLGC (disulfide 27-43) [C3(E6) [BC3]] | 100% | Yes | 67.4 | 199 | 117-281 | 280 to 3927 nM | 990 nM | 67% | – | – | – | – | –
EEEEEESGGGGSGGGKGANQQGLSKGCFGLKLDRIGSMSGLGC (disulfide 27-43) [C9(E6) [BC9]] | 98% | Yes | 79.3 | 87 | 76-97 | 183 to 1358 nM | 1170 nM | 95% | – | – | – | – | –
EEEEEESGGGGSGGGKGANKKGLSKGCFGLKLDRIGSMSGLGC (disulfide 27-43) [C4(E6) [BC4]] | 94% | Yes | 20.5 | 18 | – | 46 to 219 nM | 302 nM | 136% | – | – | – | – | –
EEEEEESGGGGSGGGGSGGGGGLSKGCFGLKLDRIGSMSGLGC (disulfide 27-43) [C1(E6) [BC1]] | 99% | Yes | 118 | 122 | 120-124 | 289 to 1733 nM | 1740 nM | 97% | – | – | – | – | –
EEEEEESGGGGSGGGQGANQQGLSKGCFGLKLDRIGSMSGLGC (disulfide 27-43) [C5(E6) [BC5]] | 100% | Yes | 161 | 138 | – | 334 to 1899 nM | 2360 nM | 96% | – | – | – | – | –
EEEEEEHGPQGQEHPNARKYKGANKKGLSKGCFGLKLDRIGSMSGLGC (disulfide 32-48) [KA1(E6)] | 108% | Yes | 9.79 | 8.2 | – | 21.6 to 102 nM | 144 nM | 108% | more potent than the other tested peptides | – | – | – | –
CC[C@H](C)[C@@H]1NC(=O)[C@H](CCCNC(=N)N)NC(=O)[C@H](CC(=O)O)NC(=O)[C@H](CC(C)C)NC(=O)[C@H](CCCCN)NC(=O)[C@H](CC(C)C)NC(=O)CNC(=O)[C@H](Cc2ccccc2)NC(=O)[C@@H](NC(=O)CNC(=O)[C@H](CCCCN)NC(=O)[C@H](CO)NC(=O)[C@H](CC(C)C)NC(=O)CN)CSSC[C@@H](C(=O)O)NC(=O)CNC(=O)[C@H](CC(C)C)NC(=O)CNC(=O)[C@H](CO)NC(=O)[C@H](CCSC)NC(=O)[C@H](CO)NC(=O)CNC1=O [CNP22, reference compound] | 0% | No | 1.00 | – | 1 | – | 14.7 ± 3.4 nM | 100% | – | 0% | 4.87 nM | 2.4 to 14 nM | 1
GLSKGCFGLKLDRIGSMSGLGCGGGGSGGGGSGGGGDDDDDD (disulfide 6-22) [CNP-14AAlinker-D6 [C4]] | 75% | Yes | 146 | 545 | 375-714 | 900 to 10000 nM | 2140 nM | 156% | – | 75% | – | – | –
EEEEEEASTSPANPQPAASSPGLSKGCFGLKLDRIGSMSGLGC (disulfide 27-43) [C2(E6) [BC2]] | 101% | Yes | 49.0 | 803 | 177-1429 | 424 to 20000 nM | 720 nM | 97% | – | – | – | – | –
EEEEEESGGGGSGGGKGANQKGLSKGCFGLKLDRIGSMSGLGC (disulfide 27-43) [C7(E6) [BC7]] | 98% | Yes | 68.6 | 80 | 74-85 | 177 to 1193 nM | 1010 nM | 95% | – | – | – | – | –
